Experimental data: the supplement of paper PMC10307832

Tests used:
Test in all cases: relative viability (nuclei count vs DMSO), 5 days (fraction); higher = more cells survive
[1] = compound: COc1ncc(-c2ccc3nccc(-c4ccnnc4)c3c2)cc1NS(=O)(=O)c1ccc(F)cc1F [Omipalisib] + CC1(C)CCC(c2ccc(Cl)cc2)=C(CN2CCN(c3ccc(C(=O)NS(=O)(=O)c4ccc(N[C@H](CCN5CCOCC5)CSc5ccccc5)c(S(=O)(=O)C(F)(F)F)c4)cc3)CC2)C1 [Navitoclax] (partner 0.5 µM)
In short: (§1)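 Cells from lung cancer lines were seeded into 1536-well plates and, one day later, dosed by pin tool. Treatments were either a single drug or a fixed dose of an anchor drug with five library-drug doses (not always all listed) in √10 steps. After 5 days, nuclei were stained in a one-step fixation (final 0.05% Triton X-100, 1% formaldehyde, 1 ug/ml Hoechst) and counted on 4× images, and relative viability is the treated-to-vehicle nuclei ratio, as the median of duplicate plates.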

[2] = compound: COc1ncc(-c2ccc3nccc(-c4ccnnc4)c3c2)cc1NS(=O)(=O)c1ccc(F)cc1F [Omipalisib] + CCNC(=O)c1noc(-c2cc(C(C)C)c(O)cc2O)c1-c1ccc(CN2CCOCC2)cc1 [Luminespib] (partner 0.01 µM)
In short: as §1

[3] = compound: COc1ncc(-c2ccc3nccc(-c4ccnnc4)c3c2)cc1NS(=O)(=O)c1ccc(F)cc1F [Omipalisib] + C[C@@H](Oc1cc(-c2cnn(C3CCNCC3)c2)cnc1N)c1c(Cl)ccc(F)c1Cl [Crizotinib] (partner 1 µM)
In short: as §1

Row | Cell Line | relative viability ([1]; first compound 0.0003 µM) | relative viability ([1]; first compound 0.003 µM) | relative viability ([1]; first compound 0.03 µM) | relative viability ([2]; first compound 0.0003 µM) | relative viability ([2]; first compound 0.003 µM) | relative viability ([2]; first compound 0.03 µM) | relative viability ([3]; first compound 0.0003 µM) | relative viability ([3]; first compound 0.003 µM) | relative viability ([3]; first compound 0.03 µM)
1 | PC-14 | 1.02 | 1.07 | 0.923 | 0.154 | 0.143 | 0.16 | 0.855 | 0.912 | 0.799
2 | NCI-H2228 | 0.972 | 0.581 | 0.204 | 0.131 | 0.0865 | 0.11 | 0.335 | 0.337 | 0.215
3 | HCC-44 | 0.848 | 0.63 | 0.27 | 1.08 | 1.09 | 0.295 | 0.783 | 0.74 | 0.308
4 | NCI-H727 | 0.458 | 0.229 | 0.152 | 0.35 | 0.281 | 0.395 | 0.707 | 0.649 | 0.391
5 | NCI-H520 | 0.972 | 0.714 | 0.292 | 0.208 | 0.232 | 0.212 | 0.636 | 0.622 | 0.193
6 | NCI-H2347 | 0.764 | 0.671 | 0.278 | 0.304 | 0.267 | 0.339 | 0.827 | 0.685 | 0.293
7 | NCI-H647 | 0.873 | 0.86 | 0.542 | 0.233 | 0.16 | 0.13 | 0.979 | 0.921 | 0.443
8 | NCI-H2342 | – | – | – | 0.622 | 0.45 | 0.446 | – | – | –
9 | LXF-289 | 0.947 | 1 | 0.739 | 0.536 | 0.456 | 0.232 | 0.846 | 0.924 | 0.712
10 | SW 900 | – | – | – | 0.189 | 0.171 | 0.166 | – | – | –
11 | COR-L23 | 1.15 | 0.778 | 0.432 | 0.616 | 0.608 | 0.277 | 0.794 | 0.667 | 0.292
12 | NCI-H1915 | 0.813 | 0.768 | 0.789 | 0.677 | 0.766 | 0.579 | 0.841 | 0.892 | 0.863
13 | NCI-H1437 | 1.03 | 0.974 | 0.517 | 1.15 | 1.02 | 0.926 | 0.864 | 0.894 | 0.702
14 | CAL-12T | 1.1 | 1.17 | 0.466 | 0.319 | 0.194 | 0.107 | 0.574 | 0.676 | 0.436
15 | NCI-H1651 | 0.834 | 0.752 | 0.484 | 0.64 | 0.648 | 0.565 | 0.749 | 0.762 | 0.569
16 | NCI-H1792 | 0.583 | 0.515 | 0.235 | 0.328 | 0.41 | 0.184 | 0.971 | 0.848 | 0.269
17 | COR-L 105 | 0.701 | 0.714 | 0.434 | 0.703 | 0.796 | 0.591 | 0.799 | 0.779 | 0.558
18 | NCI-H596 | 0.849 | 0.519 | 0.174 | 0.98 | 0.657 | 0.285 | 0.93 | 0.561 | 0.361
